US20210244712A1, “METHODS FOR TREATING PATIENTS WITH CANCER HAVING DEFECTS IN CYCLIN D REGULATION” (NysnoBio Ireland DAC, priority 2018, published 2021)

Legend:
Experiment in all cases: Cell proliferation assay
Assay type in all cases: cell-based
Mino = details: Homo sapiens; Mantle Cell Mino; overexpression of Cyclin D
Method: (§1) Measurement of the inhibitive effect of compounds on cancer cell proliferation was performed. The assays were performed under the following conditions: Cells are harvested at a concentration of 4×10^4 cells/ml in media. Volumes of 100 μL/well of these cell suspensions were added to a 96 well plate using a multichannel pipette. Plates were gently agitated to ensure an even dispersion of cells over a given plate. Cells were then incubated at 37° C., 5% CO2 overnight. Following this, 100 μL of compound at varying concentrations was added to wells in triplicate. Control wells are those with 100 μL media containing 0.33% DMSO added to cell suspension (this is the equivalent volume of DMSO found in the highest concentration of drug). Plates were then gently agitated, as above, and incubated at 37° C., 5% CO2 for 72 hrs (control wells have reached 80-90% confluency). Assessment of cell proliferation in the presence of Compounds C and F was determined by the acid phosphatase assay.
(§2) Following the incubation period of 72 hrs, media was removed from the plates. Each well on the plate was washed twice with 100 μL PBS. This was then removed and 100 μL of freshly prepared phosphatase substrate (10 mM p-nitrophenol phosphate in 0.1M sodium acetate, 0.1% triton X-100, pH 5.5) was added to each well. The plates were then incubated in the dark at 37° C. for 2 hours. Color development was monitored during this time. The enzymatic reaction was stopped by the addition of 50 μL of 1N NaOH. The plate was read in a dual beam plate reader at 405 nm with a reference wavelength of 620 nm. The absorbance reading of the latter is subtracted from the former, and the effect of the drug on cell proliferation was then measured as a percentage against the control cells (DMSO), which is taken as 0% inhibition.

SK-OV-3 = details: Homo sapiens, Table 7a, Ovarian (SKOV3)
Method: as §1, §2

KPL-1 = details: 72 hrs, read-out: Cell Viability: IC50
Method: as §1, §2

HCC38 = details: Homo sapiens, 72 hrs, read-out: Cell Viability: IC50
Method: as §1, §2

NCl-H226 = details: 72 hrs, read-out: Cell Viability: IC50
Method: as §1, §2

Calu-6 = details: Homo sapiens, 72 hrs, read-out: Cell Viability: IC50
Method: as §1, §2

LOVO = details: Homo sapiens, 72 hrs, read-out: Cell Viability: IC50
Method: as §1, §2

LS174T = details: Homo sapiens, 72 hrs, read-out: Cell Viability: IC50
Method: as §1, §2

T-47D = details: Homo sapiens, T47D, 72 hrs, read-out: Cell Viability: IC50
Method: as §1, §2

RKO = details: Homo sapiens, 72 hrs, read-out: Cell Viability: IC50
Method: as §1, §2

HCC1954 = details: Homo sapiens, 72 hrs, read-out: Cell Viability: IC50
Method: as §1, §2

COV504 = details: 72 hrs, read-out: Cell Viability: IC50
Method: as §1, §2

MDA-MB-231 = details: Homo sapiens, 72 hrs, read-out: Cell Viability: IC50
Method: as §1, §2

Calu-1 = details: Homo sapiens, 72 hrs, read-out: Cell Viability: IC50
Method: as §1, §2

MSTO-211H = details: Homo sapiens, 72 hrs, read-out: Cell Viability: IC50
Method: as §1, §2

HCT-8 = details: Homo sapiens, 72 hrs, read-out: Cell Viability: IC50
Method: as §1, §2

ZR-75-1 = details: Homo sapiens, 72 hrs, read-out: Cell Viability: IC50
Method: as §1, §2

Caco-2 = details: Homo sapiens, 72 hrs, read-out: Cell Viability: IC50
Method: as §1, §2

OVTOKO = details: 72 hrs, read-out: Cell Viability: IC50
Method: as §1, §2

SK-BR-3 = details: Homo sapiens, 72 hrs, read-out: Cell Viability: IC50
Method: as §1, §2

JIMT-1 = details: Homo sapiens, 72 hrs, read-out: Cell Viability: IC50
Method: as §1, §2

MDA-MB-157 = details: Homo sapiens, 72 hrs, read-out: Cell Viability: IC50
Method: as §1, §2

SW948 = details: Homo sapiens, 72 hrs, read-out: Cell Viability: IC50
Method: as §1, §2

NCl-H292 = details: 72 hrs, read-out: Cell Viability: IC50
Method: as §1, §2

SW480 = details: Homo sapiens, 72 hrs, read-out: Cell Viability: IC50
Method: as §1, §2

MDA-MB-468 = details: Homo sapiens, 72 hrs, read-out: Cell Viability: IC50
Method: as §1, §2

OVISE = details: 72 hrs, read-out: Cell Viability: IC50
Method: as §1, §2

NCl-H1395 = details: 72 hrs, read-out: Cell Viability: IC50
Method: as §1, §2

MDA-MB-436 = details: Homo sapiens, 72 hrs, read-out: Cell Viability: IC50
Method: as §1, §2

SK-LU-1 = details: Homo sapiens, 72 hrs, read-out: Cell Viability: IC50
Method: as §1, §2

HT-29 = details: Homo sapiens, 72 hrs, read-out: Cell Viability: IC50
Method: as §1, §2

OVSAHO = details: Homo sapiens, 72 hrs, read-out: Cell Viability: IC50
Method: as §1, §2

DLD-1 = details: Homo sapiens, 72 hrs, read-out: Cell Viability: IC50
Method: as §1, §2

MDA-MB-453 = details: Homo sapiens, 72 hrs, read-out: Cell Viability: IC50
Method: as §1, §2

Hutu 80 = details: Homo sapiens, HuTu80, 72 hrs, read-out: Cell Viability: IC50
Method: as §1, §2

NC-H196 = details: 72 hrs, read-out: Cell Viability: IC50
Method: as §1, §2

NCl-H1703 = details: 72 hrs, read-out: Cell Viability: IC50
Method: as §1, §2

SK-CO-1 = details: Homo sapiens, 72 hrs, read-out: Cell Viability: IC50
Method: as §1, §2

BT-474 = details: Homo sapiens, 72 hrs, read-out: Cell Viability: IC50
Method: as §1, §2

Cc1ccccc1C(=O)Nc1nc(NC(=O)c2ccccc2C)n(-c2ccc(OC(F)(F)F)cc2)n1 [Compound 42, N,N′-(1-(4-(trifluoromethoxy)phenyl)-1H-1,2,4-triazole-3,5-diyl)bis(2-methylbenzamide)]
IC50 (Mino): 0.345 µM | EC50 (SK-OV-3): 0.376 µM

Cc1ccccc1C(=O)Nc1nc(NC(=O)c2ccccc2C)n(-c2ccccc2)n1 [Compound F, 2-methyl-N-[5-[(2-methylbenzoyl)amino]-1-phenyl-1,2,4-triazol-3-yl]benzamide]
IC50 (KPL-1): 3.86 µM | IC50 (HCC38): 5.77 µM | IC50 (NCl-H226): 7.33 µM | IC50 (Calu-6): 1.89 µM | IC50 (LOVO): 5.64 µM | IC50 (LS174T): 2.37 µM | IC50 (T-47D): 7.37 µM | IC50 (RKO): 4.12 µM | IC50 (HCC1954): 3.69 µM | IC50 (COV504): 2 µM | IC50 (MDA-MB-231): 6.98 µM | IC50 (Calu-1): 43.3 µM | IC50 (MSTO-211H): 2.31 µM | IC50 (HCT-8): 4.74 µM | IC50 (ZR-75-1): 3.87 µM | IC50 (Caco-2): > 10 µM | IC50 (OVTOKO): > 10 µM | IC50 (SK-BR-3): 3.05 µM | IC50 (JIMT-1): 8.49 µM | IC50 (MDA-MB-157): 5.82 µM | IC50 (SW948): 8.37 µM | IC50 (NCl-H292): 0.95 µM | IC50 (SW480): 3.49 µM | IC50 (MDA-MB-468): 3.18 µM | IC50 (OVISE): 7.33 µM | IC50 (NCl-H1395): 7.6 µM | IC50 (MDA-MB-436): 6.55 µM | IC50 (SK-LU-1): 5.73 µM | IC50 (HT-29): 2.96 µM | IC50 (OVSAHO): 6.53 µM | IC50 (DLD-1): 7.49 µM | IC50 (MDA-MB-453): 3.04 µM | IC50 (Hutu 80): 1.63 µM | IC50 (NC-H196): 2.83 µM | IC50 (NCl-H1703): 1.85 µM | IC50 (SK-CO-1): 0.98 µM | IC50 (BT-474): 3.03 µM
